One series deals with solid tumors. Conditions: cited from earlier work.
In another series the test system is advanced solid tumors. As to the kind of experiment: Best overall response, all patients. Type of series: in vivo, human. Conditions: single agent and combination.
Series [1] deals with patients with advanced solid tumors. In words: Safety and tolerability. The format is in vivo, human. The following applies: single-agent SDS sachet cohort, all doses, 61 patients.
The next series deals with PI3K/mTOR. Conditions: cellular assays; cited from earlier work.
The next series concerns mTOR. The following applies: cellular assays; cited from earlier work.
The conditions of series [2]: human, in vivo.
Series [3] relates to patients with advanced solid tumors. The following applies: single-agent BEZ235, oral once daily, continuous 28-day cycles.

Consider 2 compounds from PMC6286256 (Cancer chemotherapy and pharmacology, 2018).

Each structure is given as a SMILES string.

Regarding `CO[C@H]1C[C@@H]2CC[C@@H](C)[C@@](O)(O2)C(=O)C(=O)N2CCCC[C@H]2C(=O)O[C@H]([C@H](C)C[C@@H]2CC[C@@H](OCCO)[C@H](OC)C2)CC(=O)[C@H](C)/C=C(\C)[C@@H](O)[C@@H](OC)C(=O)[C@H](C)C[C@H](C)/C=C/C=C/C=C/1C` [everolimus], in the series on solid tumors, the Incidence of stomatitis is 59–71%.
For `Cn1c(=O)n(-c2ccc(C(C)(C)C#N)cc2)c2c3cc(-c4cnc5ccccc5c4)ccc3ncc21` [BEZ235], in the series on advanced solid tumors (5 patients), the “Patients with PR as best overall response” value amounted to 2.7%. Besides, the “Patients with SD as best overall response” value in the series on advanced solid tumors (62 patients) was 33.9%. Further, in series [1], the “Diarrhea, frequency” value was 75.4%; the “Nausea, frequency” value worked out at 80.3%; the “Vomiting, frequency” value came out at 63.9%. The “concentration at which dual PI3K/mTOR blockade is observed” value with PI3K/mTOR is recorded as “≈ 500 nmol/L”. Further, the “concentration at which mTOR inhibition predominates” value in the series with mTOR was less than 100 nmol/L. In series [2], the Bioavailability result is “low bioavailability”. Moreover, the MTD in series [3] was found to be 1200 mg/day.
